How the values were obtained:
[1] = Stability study I: physical degradation and benchmark stability study; format: physicochemical
Procedure: Testing of the chemical degradation was performed in an accelerated stability study setup applying heat as an accelerator/stressor. An Arrhenius analysis was carried out providing an API half-life and a degradation rate at lower temperatures. Physical stability was evaluated at the desired storage temperature (2-8° C.); a benchmark/reference condition was likewise included in the study. The setup of the study is specified below:
Physical degradation and benchmark stability study: 2-8° C., 25° C.
Physical degradation and benchmark stability study: initial, 14 and 28 days,
appearance, pH, c(BCV) recovery (HPLC), purity (HPLC), and liquid particle counting (physical degradation and benchmark stability study),
The results of the physical/benchmark stability for both tested formulations are summarized in Table 11 and Table 12, respectively. The purities of the formulations at different temperatures were determined by comparing chromatograms obtained at different temperatures and time points during the study.

rat whole blood = assay: Hemolytic potential, cyanmethemoglobin method, rat whole blood; format: cell-based; details: for Estimated % Hemolysis: based on normal rat hemoglobin 13 g/dL; for Mean HgB Concentration: interference control, Phase 1
Procedure: Each concentration of test item for the rat was mixed separately in a 1:4 ratio with rat whole blood while each concentration of test item for the human was mixed separately in a 1:4 ratio with human whole blood. These samples plus control samples [vehicle control (vehicle+whole blood, 1 for rat and 1 for humans), positive control (1% Saponin+whole blood), untreated whole blood control and negative control (saline+whole blood) were analyzed for hemolysis (supernatant hemoglobin concentration).
(§1) The rat and human whole blood samples were incubated in test or control items at 37±1° C. for 20 minutes and then immediately (within 2 minutes) centrifuged at 3500±100 rpm (2740 g) at room temperature for 5-10 minutes. The supernatant was extracted and subjected to a hemoglobin analysis using the cyanmethemoglobin method employed on the Siemens Advia 120 hematology analyzer. If the test item has a potential for causing hemolysis, then hemoglobin released from lysed red blood cells into the plasma supernatant can be quantified via the reaction of heme iron in solution being oxidized from a ferrous to a ferric state in the presence of potassium cyanide. The reaction results in the formation of methemoglobin, which then combines with cyanide to form a stable cyanmethemoglobin. When measured spectrophotometrically at 546 nm the absorbance of cyanmethemoglobin follows Beer's Law and is directly proportional to the concentration of hemoglobin released into solution.
as §1, with “Without wishing to be bound by theory, if” for “If”

[2] = 7-day dose range-finding study, 2-hour IV infusion (Phase 2): toxicity; format: in vivo, Sprague-Dawley CD rats
Procedure: For Phase 2, Sprague-Dawley CD® rats (5/sex/group) were dosed with brincidofovir via 2-hour IV infusion with 0 [2× sodium phosphate buffer solution (400 mM, pH 8.0±0.04)], 1 or 15 mg/kg on Days 1, 4 and 7. The dose volume was 10 mL/kg/hr for all groups. At the end of the Phase 2 treatment period, all animals were euthanized and necropsied. Phase 2 satellite animals (3/sex/Group 1 and 6/sex/Group 2-3) were similarly dosed and blood samples collected on Days 1 and 7 for toxicokinetic analysis of brincidofovir and one of its metabolites, cidofovir.
For Phase 2 (DRF), the test and control articles were administered, via intravenous 2-hour IV infusion to rats on Days 1, 4, and 7.
During Phase 2, each animal received brincidofovir administrations via intravenous infusion (2-hours) on Days 1, 4 and 7. Animals were maintained on sterile saline at a rate of 0.5 mL/hour between doses. Catheters were tied off after the completion of dose administration on Day 7 (a knot was placed in the catheter and the catheter was receded under the skin) and jackets were removed.
Blood obtained via the orbital sinus (retrobulbar venous plexus) as a terminal procedure under light isoflurane anesthesia was used to analyze hematology and clinical chemistry parameters for all animals at termination of dosing. Animals were fasted overnight prior to blood collection. Animals were not allowed to recover from anesthesia after blood collection.
Blood samples (approximately 0.25 mL) were collected into tubes containing K2EDTA anticoagulant and analyzed for the following using a Siemens ADVIA 120 Hematology Analyzer: Hemoglobin concentration (HGB); Hematocrit (HCT); Erythrocyte count (RBC); Platelet count (PLT); Mean corpuscular volume (MCV); Mean corpuscular hemoglobin (MCH); Mean corpuscular hemoglobin concentration (MCHC); Red cell distribution width (RDW); Total leukocyte count (WBC); Reticulocyte count (RETIC); Differential leukocyte count (Manual differential leukocyte counts were performed for verification and absolute values were calculated if necessary); Neutrophils (ANEU); Lymphocytes (ALYM); Eosinophils (AEOS); Basophils (ABASO); Monocytes (AMONO); Large unstained cells (ALUC);
Blood samples (approximately 1 mL) were collected into tubes with no anticoagulant, allowed to clot, centrifuged to obtain serum and analyzed for the following using a Siemens ADVIA 1800 Chemistry Analyzer: Aspartate aminotransferase (AST) (Kinetic—Modified Bergmeyer); Alanine aminotransferase (ALT) (Kinetic—Modified Bergmeyer); Alkaline phosphatase (ALKP) (Kinetic—Tietz AMP Buffer); Blood urea nitrogen (BUN) (Enzymatic Roch-Ramek with Urease); Creatinine (CREAT) (Jaffe Picric Acid in Alkaline Medium); Glucose (GLU) (Glucose Hexokinase II Method); Cholesterol (CHOL) (Enzymatic esterase/oxidase Trinder Endpoint); Triglycerides (TRIG) (Fossati Three Step Enzymatic—Trinder Endpoint); Total protein (TP) (Biuret Technique); Albumin (ALB) (Bromocresol Green Method); Total bilirubin (TBILI) (Oxidation with Vandate); Sodium (NA^+) (Ion Selective Electrode); Potassium (K^+) (Ion Selective Electrode); Chloride (Cr) (Ion Selective Electrode); Calcium (Ca′) (Michaylova & Ilkova, Arsenazo III); Inorganic phosphorus (PHOS) (Phosphomolybdate—UV Method).
Complete macroscopic examinations were performed on all Phase 2 main study animals. The macroscopic examination included examination of the external surface and all orifices; the external surfaces of the brain and spinal cord; the organs and tissues of the cranial, thoracic, abdominal and pelvic cavities and neck; and the remainder of the carcass for the presence of macroscopic morphologic abnormalities. Animals were discarded after examination; no tissues were collected or preserved.

CCCCCCCCCCCCCCCCOCCCOP(=O)(O)CO[C@H](CO)Cn1ccc(N)nc1=O [Brincidofovir]
Degradation over one month ([1]; 2-8 °C): 6%
Degradation over one month ([1]; 25 °C): 8%
Purity of brincidofovir ([1]; over one month): 99%
Brincidofovir concentration with in vitro evidence of hemolysis (rat whole blood): above 0.75 mg/mL
Hemolysis classification (rat whole blood; 0.2 mg/mL): non-hemolytic (Formulations with a hemolysis value of <10% are considered to be non-hemolytic)
Calculated % hemolysis (rat whole blood; 0.5 mg/mL ([…])): 2.4%
Calculated % hemolysis (rat whole blood; 1.6 mg/mL ([…])): 13.0%
Hemolysis classification (rat whole blood; 0.5 and 1.6 mg/mL): not considered a hemolytic risk
Estimated % Hemolysis (rat whole blood; Tube 1B: Test Item (0.5 mg/mL) + rat whole blood): 2.4%
Estimated % Hemolysis (rat whole blood; Tube 1C: Test Item (1.6 mg/mL) + rat whole blood): 13.0%
Mean HgB Concentration (rat whole blood; Tube 2A: Test Item (0.2 mg/mL) + saline): 0.0 g/dL
Mean HgB Concentration (rat whole blood; Tube 2B: Test Item (0.5 mg/mL) + saline): 0.0 g/dL
Mean HgB Concentration (rat whole blood; Tube 2C: Test Item (1.6 mg/mL) + saline): 0.0 g/dL
Tolerability ([2]; 1 and 15 mg/kg/day, Days 1, 4 and 7): well tolerated
Clinical signs ([2]; 1 or 15 mg/kg/day): did not result in any brincidofovir-related clinical signs
Decrease in red cell mass vs controls (to) ([2]; end of 7-day dosing phase): −4.2%
Change in reticulocytes vs controls ([2]; females, 15 mg/kg): −30%
Change in urea (BUN) vs controls ([2]; females, 15 mg/kg): +29%
Change in total calcium vs controls ([2]; females, ≧1 mg/kg): +4.9%
Change in MCHC vs controls ([2]; males, 15 mg/kg): +2.1%
Change in total calcium vs controls ([2]; males, 15 mg/kg): +3.8%
Change in reticulocytes vs controls ([2]; males, 15 mg/kg, Days 1, 4, 7): −33%

Source: patent US20170368082A1, “FORMULATIONS OF BRINCIDOFOVIR” (priority 2016, published 2017)
